Measured values published in PubChem BioAssay (NCI).
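Interpolation was linear, between the two tested concentrations surrounding the appropriate level; five concentrations were tested over 48 hours in 96-well plates. Abbreviation: GI50, concentration required for 50% inhibition of growth. TGI is the concentration that stops growth completely.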

Experiments:
Test in all cases: NCI-60 cell line screen, 48 h
[1] = system: ACHN renal
[2] = system: LOX IMVI melanoma
[3] = system: HCC-2998 colon
[4] = system: RPMI-8226 leukemia
[5] = system: 786-0 renal
[6] = system: SK-MEL-5 melanoma
[7] = system: IGROV1 ovarian
[8] = system: SR leukemia
[9] = system: NCI-H460 lung
[10] = system: UACC-62 melanoma
[11] = system: CAKI-1 renal
[12] = system: SN12C renal
[13] = system: HS 578T breast
[14] = system: TK-10 renal
[15] = system: T-47D breast
[16] = system: HCT-116 colon
[17] = system: K-562 leukemia
[18] = system: UO-31 renal
[19] = system: M14 melanoma
[20] = system: PC-3 prostate
[21] = system: OVCAR-3 ovarian
[22] = system: BT-549 breast
[23] = system: A549 NSCLC
[24] = system: OVCAR-4 ovarian
[25] = system: HOP-92 NSCLC
[26] = system: SF-539 CNS
[27] = system: NCI/ADR-RES ovarian
[28] = system: SF-295 CNS
[29] = system: U251 CNS
[30] = system: CCRF-CEM leukemia
[31] = system: EKVX NSCLC
[32] = system: NCI-H226 lung
[33] = system: HOP-62 NSCLC
[34] = system: SK-MEL-2 melanoma
[35] = system: SW-620 colon
[36] = system: SNB-19 CNS
[37] = system: SK-MEL-28 melanoma
[38] = system: COLO 205 colon
[39] = system: SF-268 CNS
[40] = system: MDA-MB-231 breast
[41] = system: UACC-257 melanoma
[42] = system: MDA-MB-435
[43] = system: HCT-15 colon
[44] = system: OVCAR-8 ovarian
[45] = system: NCI-H522 lung
[46] = system: KM12 colon
[47] = system: MALME-3M melanoma
[48] = system: DU-145 prostate
[49] = system: SK-OV-3 ovarian
[50] = system: SNB-75 CNS
[51] = system: HT29 colon
[52] = system: MCF7 breast
[53] = system: HL-60(TB) leukemia
[54] = system: MOLT-4 leukemia
[55] = system: OVCAR-5 ovarian
[56] = system: A498 renal
[57] = system: RXF 393 renal

CCc1cccc2c3c(sc12)C(c1ccc(OC)cc1)C(C#N)=C(/N=C/c1ccc(Cl)cc1)O3 (centres undefined)
GI50 [1]: 3.16 µM
TGI [1]: 19.4 µM
GI50 [2]: 1.87 µM
TGI [2]: 15 µM
GI50 [3]: 1.79 µM
TGI [3]: 4.57 µM
GI50 [4]: 2.28 µM
TGI [4]: 7.27 µM
GI50 [5]: 2.2 µM
TGI [5]: 16.1 µM
GI50 [6]: 2.81 µM
TGI [6]: 11.8 µM
GI50 [7]: 1.67 µM
TGI [7]: > 100 µM
GI50 [8]: 0.361 µM
TGI [8]: 5.97 µM
GI50 [9]: 1.02 µM
TGI [9]: 10.4 µM
GI50 [10]: 0.54 µM
TGI [10]: 30.5 µM
GI50 [11]: 0.595 µM
TGI [11]: 29.1 µM
GI50 [12]: 3.76 µM
TGI [12]: 19.1 µM
GI50 [13]: 1.9 µM
TGI [13]: 7.8 µM
GI50 [14]: 20.5 µM
TGI [14]: > 100 µM
GI50 [15]: 2.43 µM
TGI [15]: > 100 µM
GI50 [16]: 1.07 µM
TGI [16]: 10.3 µM
GI50 [17]: 0.363 µM
TGI [17]: > 100 µM
GI50 [18]: 1.85 µM
TGI [18]: 49.6 µM
GI50 [19]: 1.24 µM
TGI [19]: 5.17 µM
GI50 [20]: 1.83 µM
TGI [20]: 22.1 µM
GI50 [21]: 0.554 µM
TGI [21]: 4.49 µM
GI50 [22]: 4.23 µM
TGI [22]: 39.7 µM
GI50 [23]: 5.39 µM
TGI [23]: > 100 µM
GI50 [24]: 6.65 µM
TGI [24]: > 100 µM
GI50 [25]: 5.48 µM
TGI [25]: 53.3 µM
GI50 [26]: 1.59 µM
TGI [26]: 4.29 µM
GI50 [27]: 0.55 µM
TGI [27]: 4.7 µM
GI50 [28]: 1.26 µM
TGI [28]: 15.5 µM
GI50 [29]: 3 µM
TGI [29]: 13.8 µM
GI50 [30]: 0.792 µM
TGI [30]: 7.96 µM
GI50 [31]: 5.94 µM
TGI [31]: > 100 µM
GI50 [32]: 2.59 µM
TGI [32]: 13.1 µM
GI50 [33]: 2.5 µM
TGI [33]: 20.2 µM
GI50 [34]: 0.987 µM
TGI [34]: 5.95 µM
GI50 [35]: 1.14 µM
TGI [35]: 15.7 µM
GI50 [36]: 3.56 µM
TGI [36]: > 100 µM
GI50 [37]: 4.85 µM
TGI [37]: 28 µM
GI50 [38]: 2.2 µM
TGI [38]: 5 µM
GI50 [39]: 5.6 µM
TGI [39]: 44.4 µM
GI50 [40]: 2.95 µM
TGI [40]: 13.6 µM
GI50 [41]: 16.1 µM
TGI [41]: > 100 µM
GI50 [42]: 0.227 µM
TGI [42]: 0.578 µM
GI50 [43]: 0.6 µM
TGI [43]: 11.2 µM
GI50 [44]: 2.15 µM
TGI [44]: 7.09 µM
GI50 [45]: 0.78 µM
TGI [45]: 2.7 µM
GI50 [46]: 2.06 µM
TGI [46]: 33.2 µM
GI50 [47]: 0.921 µM
TGI [47]: 44.3 µM
GI50 [48]: 3.3 µM
TGI [48]: > 100 µM
GI50 [49]: 2.42 µM
TGI [49]: 45.4 µM
GI50 [50]: 1.35 µM
TGI [50]: 15.3 µM
GI50 [51]: 2.31 µM
TGI [51]: 6.26 µM
GI50 [52]: 0.859 µM
TGI [52]: 14.1 µM
GI50 [53]: 0.563 µM
TGI [53]: 5.98 µM
GI50 [54]: 2.25 µM
TGI [54]: 17.1 µM
GI50 [55]: 3.97 µM
TGI [55]: 27.8 µM
GI50 [56]: 20.1 µM
TGI [56]: > 100 µM
GI50 [57]: 0.72 µM
TGI [57]: 2.56 µM
